Source: ChEMBL document CHEMBL2177100, “Structural optimization and structure-activity relationships of N2-(4-(4-Methylpiperazin-1-yl)phenyl)-N8-phenyl-9H-purine-2,8-diamine derivatives, a new class of reversible kinase inhibitors targeting both EGFR-activating and resistance mutations” (J Med Chem, 2012)
pIC50, pKd: −log10 of the molar value. Activity calls are given as the source filed them. No cut-off for these calls is given here.

Columns and labels:
[1] = Inhibition of human recombinant PKA by radiometric kinase assay
[2] = system: HepG2; test: Cytotoxicity against human HepG2 cells incubated for 72 hrs by MTT assay; assay type: functional, cell-based; conditions: HepG2, 72 h
[3] = Clearance in Sprague-Dawley rat at 20 mg/kg, po; assay type: ADME, organism-based; parameters: dose 20 mg/kg, route oral; conditions: in vivo
[4] = biological target: Hepatocyte growth factor receptor (Homo sapiens, UniProt P08581); test: Inhibition of human recombinant MET by radiometric kinase assay
[5] = Half life in Sprague-Dawley rat at 20 mg/kg, po; assay type: ADME, organism-based; parameters: dose 20 mg/kg, route oral; conditions: in vivo
[6] = biological target: Cyclin-dependent kinase 2 (Homo sapiens, UniProt P24941); test: Inhibition of human recombinant CDK2 by radiometric kinase assay
[7] = biological target: Tyrosine-protein kinase JAK1 (Homo sapiens, UniProt P23458); test: Inhibition of human recombinant JAK1 by radiometric kinase assay
[8] = biological target: RAC-alpha serine/threonine-protein kinase (Homo sapiens, UniProt P31749); test: Inhibition of human recombinant PKBalpha by radiometric kinase assay
[9] = system: Mus musculus; test: Inhibition of EGFR phosphorylation in human HCC827 cells xenografted in BALB/c mouse at 1 mg/kg/day, po for 3 days by immunohistochemistry; assay type: functional, organism-based
[10] = Tmax in Sprague-Dawley rat at 20 mg/kg, po; assay type: ADME, organism-based; parameters: dose 20 mg/kg, route oral; conditions: in vivo
[11] = system: HCC827; test: Antitumor activity against human HCC827 cells xenografted in BALB/c mouse assessed as reduction tumor volume at 20 mg/kg, po qd; assay type: functional, organism-based; parameters: dose 20 mg/kg
[12] = Binding affinity to […] EGFR 747-E749del, A750P mutant by KINOMEscan kinase binding assay
[13] = system: NCI-H1975; test: Antitumor activity against human NCI-H1975 cells xenografted in BALB/c mouse assessed as inhibition of tumor growth at 50 mg/kg, po qd; assay type: functional; conditions: read-out: TGI
[14] = biological target: Insulin receptor (Homo sapiens, UniProt P06213); test: Inhibition of human recombinant INSR by radiometric kinase assay
[15] = Cmax in Sprague-Dawley rat at 20 mg/kg, po; assay type: ADME, organism-based; parameters: dose 20 mg/kg, route oral; conditions: in vivo
[16] = Binding affinity to […] EGFR […] mutant by KINOMEscan kinase binding assay
[17] = biological target: Mitogen-activated protein kinase 12 (Homo sapiens, UniProt P53778); test: Inhibition of human recombinant p38gamma by radiometric kinase assay
[18] = biological target: MAP kinase-activated protein kinase 2 (Homo sapiens, UniProt P49137); test: Inhibition of human recombinant MK2 by radiometric kinase assay
[19] = Inhibition of human recombinant S6K by radiometric kinase assay
[20] = biological target: Receptor tyrosine-protein kinase erbB-4 (Homo sapiens, UniProt Q15303); test: Inhibition of human recombinant ERBB4 by radiometric kinase assay
[21] = biological target: Serine/threonine-protein kinase N1 (Homo sapiens, UniProt Q16512); test: Inhibition of human recombinant PKN1 by radiometric kinase assay
[22] = biological target: Proto-oncogene tyrosine-protein kinase Src (Homo sapiens, UniProt P12931); test: Inhibition of human recombinant SRC by radiometric kinase assay
[23] = biological target: MAP kinase-interacting serine/threonine-protein kinase 2 (Homo sapiens, UniProt Q9HBH9); test: Inhibition of human recombinant MNK2 by radiometric kinase assay
[24] = biological target: MAP kinase-activated protein kinase 5 (Homo sapiens, UniProt Q8IW41); test: Inhibition of human recombinant MK5 by radiometric kinase assay
[25] = system: NCI-H1975; test: Cytotoxicity against human NCI-H1975 cells incubated for 72 hrs by MTT assay; assay type: functional, cell-based; conditions: NCI-H1975, 72 h
[26] = Inhibition of human recombinant CK1 by radiometric kinase assay
[27] = biological target: Non-receptor tyrosine-protein kinase TYK2 (Homo sapiens, UniProt P29597); test: Inhibition of human recombinant TYK2 by radiometric kinase assay
[28] = system: FaDu; test: Cytotoxicity against human FADU cells incubated for 72 hrs by MTT assay; assay type: functional, cell-based
[29] = system: MDA-MB-231; test: Cytotoxicity against human MDA-MB-231 cells incubated for 72 hrs by MTT assay; assay type: functional, cell-based; conditions: MDA-MB-231, 72 h
[30] = biological target: Glycogen synthase kinase-3 beta (Homo sapiens, UniProt P49841); test: Inhibition of human recombinant GSK3beta by radiometric kinase assay
[31] = biological target: MAP kinase-interacting serine/threonine-protein kinase 1 (Homo sapiens, UniProt Q9BUB5); test: Inhibition of human recombinant MNK1 by radiometric kinase assay
[32] = biological target: Interleukin-1 receptor-associated kinase 4 (Homo sapiens, UniProt Q9NWZ3); test: Inhibition of human recombinant IRAK4 by radiometric kinase assay
[33] = system: NCI-H1975; test: Antitumor activity against human NCI-H1975 cells xenografted in BALB/c mouse assessed as inhibition of tumor growth administered orally once daily; assay type: functional, cell-based
[34] = system: A-431; test: Cytotoxicity against human A431 cells incubated for 72 hrs by MTT assay; assay type: functional, cell-based; conditions: A-431, 72 h
[35] = biological target: Tyrosine-protein kinase JAK2 (Homo sapiens, UniProt O60674); test: Inhibition of human recombinant JAK2 by radiometric kinase assay
[36] = system: Calu-3; test: Cytotoxicity against human Calu3 cells incubated for 72 hrs by MTT assay; assay type: functional, cell-based; conditions: Calu-3, 72 h
[37] = system: NCI-H1975; test: Antitumor activity against human NCI-H1975 cells xenografted in BALB/c mouse assessed as reduction in Ki67 expression at 50 mg/kg/day, po for 10 days by immunohistochemistry; assay type: functional, organism-based
[38] = biological target: Mitogen-activated protein kinase 9 (Homo sapiens, UniProt P45984); test: Inhibition of human recombinant JNK2 by radiometric kinase assay
[39] = biological target: Macrophage-stimulating protein receptor (Homo sapiens, UniProt Q04912); test: Inhibition of human recombinant MST1R by radiometric kinase assay
[40] = biological target: Vascular endothelial growth factor receptor 2 (Homo sapiens, UniProt P35968); test: Inhibition of human recombinant VEGFR2 by radiometric kinase assay
[41] = system: NCI-H292; test: Cytotoxicity against human NCI-H292 cells incubated for 72 hrs by MTT assay; assay type: functional, cell-based; conditions: NCI-H292, 72 h
[42] = biological target: Insulin-like growth factor 1 receptor (Homo sapiens, UniProt P08069); test: Inhibition of human recombinant IGF1R by radiometric kinase assay
[43] = biological target: Serine/threonine-protein kinase PLK1 (Homo sapiens, UniProt P53350); test: Inhibition of human recombinant PLK1 by radiometric kinase assay
[44] = biological target: Serine/threonine-protein kinase pim-2 (Homo sapiens, UniProt Q9P1W9); test: Inhibition of human recombinant PIM2 by radiometric kinase assay
[45] = Binding affinity to […] EGFR L747-S752del, Sins mutant by KINOMEscan kinase binding assay
[46] = biological target: Receptor tyrosine-protein kinase erbB-2 (Homo sapiens, UniProt P04626); test: Inhibition of human recombinant ERBB2 by radiometric kinase assay
[47] = system: HCC827; test: Antitumor activity against human HCC827 cells xenografted in BALB/c mouse assessed as reduction tumor volume at 1 mg/kg, po qd; assay type: functional, organism-based; parameters: dose 1 mg/kg
[48] = biological target: Serine/threonine-protein kinase N2 (Homo sapiens, UniProt Q16513); test: Inhibition of human recombinant PKN2 by radiometric kinase assay

Sequence of Tyrosine-protein kinase JAK2 (O60674 whole entry): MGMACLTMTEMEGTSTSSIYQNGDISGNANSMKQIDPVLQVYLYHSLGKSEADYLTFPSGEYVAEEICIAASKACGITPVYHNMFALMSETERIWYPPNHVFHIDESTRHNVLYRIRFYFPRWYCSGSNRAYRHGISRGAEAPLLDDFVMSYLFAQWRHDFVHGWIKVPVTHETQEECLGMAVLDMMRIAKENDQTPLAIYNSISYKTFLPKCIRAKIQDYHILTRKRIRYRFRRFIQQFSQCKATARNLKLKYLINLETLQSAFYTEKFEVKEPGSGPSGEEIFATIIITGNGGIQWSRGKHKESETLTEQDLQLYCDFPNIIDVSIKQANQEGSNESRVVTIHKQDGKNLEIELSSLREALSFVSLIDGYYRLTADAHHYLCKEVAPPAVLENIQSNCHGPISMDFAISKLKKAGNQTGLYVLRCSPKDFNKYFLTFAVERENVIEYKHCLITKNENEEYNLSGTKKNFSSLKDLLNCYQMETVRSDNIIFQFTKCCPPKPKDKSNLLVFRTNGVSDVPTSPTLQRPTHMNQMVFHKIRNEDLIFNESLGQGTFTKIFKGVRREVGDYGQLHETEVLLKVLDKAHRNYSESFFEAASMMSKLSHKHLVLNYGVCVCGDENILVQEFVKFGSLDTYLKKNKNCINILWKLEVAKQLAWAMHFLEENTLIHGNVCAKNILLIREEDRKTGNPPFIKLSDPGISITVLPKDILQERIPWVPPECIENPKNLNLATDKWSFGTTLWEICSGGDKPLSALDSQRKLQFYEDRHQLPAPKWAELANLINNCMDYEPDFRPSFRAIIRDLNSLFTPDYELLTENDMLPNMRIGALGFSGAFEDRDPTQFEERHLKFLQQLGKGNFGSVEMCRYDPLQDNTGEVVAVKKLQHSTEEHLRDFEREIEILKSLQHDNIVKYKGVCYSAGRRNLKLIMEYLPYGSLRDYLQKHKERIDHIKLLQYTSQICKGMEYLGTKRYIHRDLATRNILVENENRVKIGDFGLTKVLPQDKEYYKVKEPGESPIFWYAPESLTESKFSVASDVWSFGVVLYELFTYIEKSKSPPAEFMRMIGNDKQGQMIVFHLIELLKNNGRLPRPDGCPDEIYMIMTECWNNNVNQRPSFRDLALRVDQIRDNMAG
Sequence of MAP kinase-activated protein kinase 5 (Q8IW41 whole entry): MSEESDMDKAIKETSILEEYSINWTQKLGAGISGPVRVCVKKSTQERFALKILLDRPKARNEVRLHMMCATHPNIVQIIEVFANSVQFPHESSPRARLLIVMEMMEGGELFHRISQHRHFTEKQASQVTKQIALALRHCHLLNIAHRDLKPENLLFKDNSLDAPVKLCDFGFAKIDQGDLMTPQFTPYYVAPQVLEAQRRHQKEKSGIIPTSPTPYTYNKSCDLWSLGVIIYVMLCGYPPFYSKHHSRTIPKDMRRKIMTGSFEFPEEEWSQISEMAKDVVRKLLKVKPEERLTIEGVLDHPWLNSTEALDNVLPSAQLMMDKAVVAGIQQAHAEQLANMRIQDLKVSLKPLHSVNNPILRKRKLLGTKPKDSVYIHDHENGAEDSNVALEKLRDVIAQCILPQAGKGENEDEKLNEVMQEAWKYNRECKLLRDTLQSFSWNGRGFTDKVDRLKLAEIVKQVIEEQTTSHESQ
Sequence of Tyrosine-protein kinase JAK1 (P23458 whole entry): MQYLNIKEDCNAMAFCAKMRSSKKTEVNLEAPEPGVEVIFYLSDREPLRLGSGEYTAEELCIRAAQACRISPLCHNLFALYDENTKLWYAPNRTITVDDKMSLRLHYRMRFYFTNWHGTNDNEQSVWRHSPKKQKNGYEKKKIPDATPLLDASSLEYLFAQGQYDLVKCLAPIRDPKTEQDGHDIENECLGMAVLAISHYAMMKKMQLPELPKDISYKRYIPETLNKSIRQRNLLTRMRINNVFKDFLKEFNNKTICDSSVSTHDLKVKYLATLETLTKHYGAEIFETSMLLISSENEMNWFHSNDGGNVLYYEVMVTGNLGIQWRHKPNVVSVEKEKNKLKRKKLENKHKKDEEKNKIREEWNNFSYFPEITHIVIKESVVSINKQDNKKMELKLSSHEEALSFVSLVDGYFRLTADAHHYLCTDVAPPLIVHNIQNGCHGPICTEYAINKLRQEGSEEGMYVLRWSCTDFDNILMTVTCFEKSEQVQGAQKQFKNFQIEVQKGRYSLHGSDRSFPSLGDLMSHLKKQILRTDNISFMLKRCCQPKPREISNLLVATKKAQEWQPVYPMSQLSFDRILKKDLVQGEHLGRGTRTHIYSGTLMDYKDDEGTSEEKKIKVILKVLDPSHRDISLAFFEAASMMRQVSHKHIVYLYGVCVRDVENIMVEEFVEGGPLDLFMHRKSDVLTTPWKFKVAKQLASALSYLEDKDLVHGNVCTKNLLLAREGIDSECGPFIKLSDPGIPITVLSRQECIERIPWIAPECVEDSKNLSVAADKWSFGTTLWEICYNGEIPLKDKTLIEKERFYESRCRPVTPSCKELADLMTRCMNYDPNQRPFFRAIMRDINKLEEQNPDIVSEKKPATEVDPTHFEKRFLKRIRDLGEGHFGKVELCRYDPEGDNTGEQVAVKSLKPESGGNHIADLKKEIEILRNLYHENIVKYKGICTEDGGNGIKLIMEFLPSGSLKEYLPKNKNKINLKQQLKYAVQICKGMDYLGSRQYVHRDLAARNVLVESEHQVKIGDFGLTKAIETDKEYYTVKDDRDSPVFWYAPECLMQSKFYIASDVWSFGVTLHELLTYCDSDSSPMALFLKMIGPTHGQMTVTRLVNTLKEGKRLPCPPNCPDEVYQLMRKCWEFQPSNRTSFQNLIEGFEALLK
Sequence of Hepatocyte growth factor receptor (P08581 whole entry): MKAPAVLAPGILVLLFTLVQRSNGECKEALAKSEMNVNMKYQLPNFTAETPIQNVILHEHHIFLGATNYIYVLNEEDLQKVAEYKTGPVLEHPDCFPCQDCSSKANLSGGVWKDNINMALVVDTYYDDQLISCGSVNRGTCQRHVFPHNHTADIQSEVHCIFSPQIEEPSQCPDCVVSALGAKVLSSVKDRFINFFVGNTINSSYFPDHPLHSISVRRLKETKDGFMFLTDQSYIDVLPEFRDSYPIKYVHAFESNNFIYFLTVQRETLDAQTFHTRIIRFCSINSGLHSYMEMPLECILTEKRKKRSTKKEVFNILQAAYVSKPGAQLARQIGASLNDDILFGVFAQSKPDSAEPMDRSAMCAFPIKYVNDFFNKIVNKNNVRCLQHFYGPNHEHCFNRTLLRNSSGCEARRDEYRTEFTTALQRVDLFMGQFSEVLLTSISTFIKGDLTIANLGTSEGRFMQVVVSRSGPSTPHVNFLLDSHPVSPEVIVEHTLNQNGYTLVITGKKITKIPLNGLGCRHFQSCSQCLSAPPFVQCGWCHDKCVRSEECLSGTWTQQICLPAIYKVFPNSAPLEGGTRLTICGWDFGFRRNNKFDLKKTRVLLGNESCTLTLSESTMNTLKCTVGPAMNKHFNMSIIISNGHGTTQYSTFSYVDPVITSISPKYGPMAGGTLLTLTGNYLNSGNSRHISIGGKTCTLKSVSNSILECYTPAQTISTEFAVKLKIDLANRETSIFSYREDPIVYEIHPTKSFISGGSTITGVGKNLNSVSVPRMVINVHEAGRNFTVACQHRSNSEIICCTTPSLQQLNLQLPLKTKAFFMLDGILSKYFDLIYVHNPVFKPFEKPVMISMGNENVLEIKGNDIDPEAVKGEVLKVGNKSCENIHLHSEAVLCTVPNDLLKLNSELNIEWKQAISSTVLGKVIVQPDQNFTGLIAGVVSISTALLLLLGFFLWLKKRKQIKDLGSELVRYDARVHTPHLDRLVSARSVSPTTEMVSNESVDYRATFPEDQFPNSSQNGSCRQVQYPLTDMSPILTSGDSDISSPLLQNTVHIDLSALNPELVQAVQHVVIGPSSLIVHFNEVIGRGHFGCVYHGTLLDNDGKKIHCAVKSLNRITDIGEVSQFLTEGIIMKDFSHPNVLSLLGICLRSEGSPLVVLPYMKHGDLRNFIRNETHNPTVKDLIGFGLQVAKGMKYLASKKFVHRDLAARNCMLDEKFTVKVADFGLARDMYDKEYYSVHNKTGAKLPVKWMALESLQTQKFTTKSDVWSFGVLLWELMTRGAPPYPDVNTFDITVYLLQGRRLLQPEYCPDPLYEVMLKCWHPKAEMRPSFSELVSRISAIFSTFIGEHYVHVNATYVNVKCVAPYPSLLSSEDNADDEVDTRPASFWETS
Sequence of Glycogen synthase kinase-3 beta (P49841 whole entry): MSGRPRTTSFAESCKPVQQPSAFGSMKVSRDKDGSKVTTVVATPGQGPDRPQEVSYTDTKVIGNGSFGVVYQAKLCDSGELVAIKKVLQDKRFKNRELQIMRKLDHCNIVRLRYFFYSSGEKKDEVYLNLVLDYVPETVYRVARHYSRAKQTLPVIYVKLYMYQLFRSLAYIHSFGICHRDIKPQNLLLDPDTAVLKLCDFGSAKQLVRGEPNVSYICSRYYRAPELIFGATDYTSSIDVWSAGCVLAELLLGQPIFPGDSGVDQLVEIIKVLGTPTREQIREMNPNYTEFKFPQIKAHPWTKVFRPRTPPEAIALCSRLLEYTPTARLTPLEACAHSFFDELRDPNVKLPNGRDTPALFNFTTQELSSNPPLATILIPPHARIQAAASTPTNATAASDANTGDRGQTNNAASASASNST
Sequence of Interleukin-1 receptor-associated kinase 4 (Q9NWZ3 whole entry): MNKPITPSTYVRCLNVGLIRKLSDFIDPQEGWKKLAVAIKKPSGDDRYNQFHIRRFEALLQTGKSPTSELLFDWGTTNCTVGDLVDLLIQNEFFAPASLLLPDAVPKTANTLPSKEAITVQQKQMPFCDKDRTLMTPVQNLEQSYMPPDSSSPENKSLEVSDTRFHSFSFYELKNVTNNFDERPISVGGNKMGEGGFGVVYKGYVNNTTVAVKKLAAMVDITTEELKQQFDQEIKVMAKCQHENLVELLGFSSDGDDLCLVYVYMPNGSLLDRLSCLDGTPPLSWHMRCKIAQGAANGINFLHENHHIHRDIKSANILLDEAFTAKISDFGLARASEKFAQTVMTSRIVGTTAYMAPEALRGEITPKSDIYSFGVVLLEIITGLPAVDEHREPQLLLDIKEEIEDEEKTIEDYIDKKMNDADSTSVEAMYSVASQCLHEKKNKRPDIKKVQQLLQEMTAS

- pIC50 [1]: 5.96
- CL/F [3]: 162 mL/min/kg
- pIC50 [4]: 5.19
- half-life [5]: 4.86 h
- pIC50 [6]: < 5.00
- pIC50 [7]: 5.48
- pIC50 [8]: < 5.00
- Tmax [10]: 1 h
- pKd [12]: 9.40
- pIC50 [14]: < 5.00
- Cmax [15]: 230 ng/mL
- pKd [16]: 9.30
- pIC50 [17]: < 5.00
- pIC50 [18]: < 5.00
- pIC50 [19]: 5.03
- pIC50 [20]: 7.52
- pIC50 [21]: 5.21
- pIC50 [22]: 6.54
- pIC50 [23]: 5.49
- pIC50 [24]: < 5.00
- pIC50 [26]: < 5.00
- pIC50 [27]: 5.17
- pIC50 [30]: < 5.00
- pIC50 [31]: 5.17
- pIC50 [32]: < 5.00
- pIC50 [35]: 5.92
- pIC50 [38]: 5.82
- pIC50 [39]: < 5.00
- pIC50 [40]: 7.70
- pIC50 [42]: < 5.00
- pIC50 [43]: < 5.00
- pIC50 [44]: < 5.00
- pKd [45]: 9.30
- pIC50 [46]: 7.22
- pIC50 [48]: < 5.00
Compound: CN1CCN(c2ccc(Nc3ncc4nc(Nc5ccccc5)n(C5CCCC5)c4n3)cc2)CC1
- pIC50 [2]: < 5.30
- inhibition [9]: Active
- TGI [11]: Active
- inhibition in vivo at 50 mg/kg [13]: 62%
- pIC50 [25]: 6.44
- pIC50 [28]: 7.82
- pIC50 [29]: 5.30
- TGI [33]: Dose-dependent effect
- pIC50 [34]: 6.92
- pIC50 [36]: 6.92
- Activity [37]: Active
- pIC50 [41]: 7.35
- TGI [47]: Active
